Where a name gives a salt, the structure may show the parent alone.
Key:
[1] = tested on: siRNA-mediated mRNA degradation; experiment: cell-based reporter screen: human 293 cells stably expressing GFP plus siRNA hairpin against GFP; settings: for Modulation Effect (inhibit or enhance siRNA-mediated mRNA degradation): Table 1
Protocol: FIG. 2 discloses one embodiment of the cell-based reporter system of the invention. In this example, a human 293-cell line stably expressing a reporter gene, GFP, was used. This cell line was further transfected with a construct that expresses siRNA hairpin against GFP, which can decrease the level of GFP expression. Individual clones were isolated with greatly (although not completely) reduced GFP expression.
Using the above-identified clones, a screen was performed using The Spectrum Collection (MicroSource Discovery Systems, Inc., Gaylordsville, Conn., United States of America), which contains 2000 biologically active and structurally diverse compounds from libraries of known drugs, experimental bioactives, and pure natural products. For example, in one embodiment, a pilot screen of this library identified one inhibitor and one enhancer of siRNA-mediated mRNA degradation.
To identify the chemical compounds that modulate the siRNA and miRNA pathway, a screening strategy was used. A human 293-cell line stably expressing a reporter gene, GFP, was used. This cell line was further transfected with a construct that expresses siRNA hairpin against GFP, which could knock down the expression of GFP. […] Using these clones, a screen was performed using The Spectrum Collection, which contains 2000 biologically active and structurally diverse compounds from libraries of known drugs, experimental bioactives, and pure natural products.
Human 293 cells stably expressing a reporter gene, GFP, were further transfected with a construct that expresses an siRNA hairpin against GFP, which results in the knock-down of the expression of GFP. Transfected cells containing the siRNA suppressed GPF expression were split and then treated with an effective amount of enoxacin (FIG. 4, second panel) and were grown for a period of 24-48 hours.

EGFP, 293-EGFP cells = experiment: plate-reader chemical library screen, GFP signal in control EGFP cells; format: cell-based, human; settings: for EGFP, 293-EGFP cells With RNAi-E / EGFP, 293-EGFP cells Drug alone: GFP signal
Protocol: (§1) The presently disclosed chemical library also was screened using a plate reader to quantify the GFP signal intensity. The following screens were conducted: (1) repeating chemical screen using plate reader to quantify the GFP signal (50 mM each drug); (2) treating cells with 50 mM RNAi-I (30 mM each additional drug); and treating cells with […] (30 mM each additional drug).
(§2) For each screen, two types of cells were used: Clone#3 and EGFP. Clone#3 cells are 293-EGFP-siGFP and could be used to identify the modulators of the RNAi pathway. EGFP cells are 293-EGFP only and were used as a control to eliminate the compounds that could kill the cells or interfere GFP signals that are not related to RNAi pathway. The results for each screen are summarized in Table 2 and Table 3, respectively.
(§3) In these three screens, compounds were identified that could either enhance or inhibit RNAi activity in Clone#3, but had no effect on EGFP cells, which would indicate that these compounds might specifically work on RNAi pathway. The modulation of RNAi activity by these compounds was calculated as the percentage of GFP signal to Clone#3 control cells.

[2] = tested on: Clone#3, 293-EGFP-siGFP cells; experiment: plate-reader chemical library screen, GFP signal in Clone#3 cells; format: cell-based, human; settings: for Clone#3, 293-EGFP-siGFP cells GFP signal intensity with Drug alone: plate reader
From the text: Further, in some embodiments, additional screens using the same library can be performed to identify other modulators of the siRNA and the miRNA pathways. In some embodiments, instead of examining the GFP signal visually under a microscope, the GFP signal can be quantified using an automatic plate reader. In such embodiments, two additional rounds of screening can be performed. In the first round of screening, the clones can be treated with compounds from a library, e.g., The Spectrum Collection, alone and the GFP level can be quantified after a period of time, e.g., 48 hours. In the second round of screening, the clones can be treated with compounds from a library, e.g., The Spectrum Collection, in the presence of 50 μM RNAi-E, i.e., enoxacin. This assay enables compounds that can modulate the activity of RNAi-E to be identified.
as §1, §2, §3

tumor cell models = settings: cited from earlier work
[3] = 50 mM RNAi-E, 30 mM each additional drug
[4] = 50 mM RNAi-E, 30 mM each additional drug, values given as decimals
[5] = 50 mM each drug, values given as decimals

Compound: C=C1C2CCC3(C)C(c4ccoc4)OC(=O)CC13OC1CC(O)C(C)(C)C(CC(=O)OC)C12C (stereo not drawn) [3-alpha-hydroxy-3-deoxyangolensic acid methyl ester]
- Modulation Effect (inhibit or enhance siRNA-mediated mRNA degradation) [1]: Enhancer
- EGFP, 293-EGFP cells With RNAi-E (EGFP, 293-EGFP cells; [3]): 118263232
- EGFP, 293-EGFP cells Drug alone (EGFP, 293-EGFP cells; 50 mM each drug): 129330172
- Clone#3, 293-EGFP-siGFP cells GFP signal intensity with Drug and RNAi-E [2, 3]: 10902446
- Clone#3, 293-EGFP-siGFP cells GFP signal intensity with Drug alone ([2]; 50 mM each drug): 10997867
- Effect ([2]; Table 2): Enhancer
- Effect ([2]; as listed in Table 3): Enhancer

Compound: CC(=O)O[C@@H]1C[C@H]2C(C)(C)[C@@H](O)CC[C@]2(C)[C@H]2CC[C@]3(C)C(=CC(=O)O[C@H]3c3ccoc3)[C@@]21C [3-beta-Hyroxydeoxo-dihydrodeoxygedunin, 3-beta-hydroxydeoxodihydrodeoxygedunin]
- Modulation Effect (inhibit or enhance siRNA-mediated mRNA degradation) [1]: Enhancer
- EGFP, 293-EGFP cells With RNAi-E (EGFP, 293-EGFP cells; [3]): 186574276
- EGFP, 293-EGFP cells Drug alone (EGFP, 293-EGFP cells; 50 mM each drug): 213530556
- Clone#3, 293-EGFP-siGFP cells GFP signal intensity with Drug and RNAi-E [2, 3]: 13998738
- Clone#3, 293-EGFP-siGFP cells GFP signal intensity with Drug alone ([2]; 50 mM each drug): 17430963
- Effect ([2]; Table 2): Enhancer
- Effect ([2]; as listed in Table 3): Enhancer

Compound: NC(=S)NN=Cc1ccc(O)cn1 [5-HP, 5-hydroxypyridine-2-carboxaldehyde thiosemicarbazone]
- anti-proliferative activity (tumor cell models): anti-proliferative activity

Compound: CC(C)C[C@H]1C(=O)N2CCC[C@H]2[C@]2(O)O[C@](NC(=O)[C@@H]3C=C4c5cccc6[nH]c(Br)c(c56)C[C@H]4N(C)C3)(C(C)C)C(=O)N12 [Bromocriptine Mesylate]
- EGFP, 293-EGFP cells With RNAi-E (EGFP, 293-EGFP cells; [3]): 136409552
- EGFP, 293-EGFP cells Drug alone (EGFP, 293-EGFP cells; 50 mM each drug): 132392840
- Clone#3, 293-EGFP-siGFP cells GFP signal intensity with Drug and RNAi-E [2, 3]: 10893798
- Clone#3, 293-EGFP-siGFP cells GFP signal intensity with Drug alone ([2]; 50 mM each drug): 7607590

Compound: C=C[C@@]1(C)CC(=O)[C@]2(O)[C@@]3(C)[C@@H](O)CCC(C)(C)[C@@H]3[C@H](O)[C@H](OC(C)=O)[C@@]2(C)O1 [Colforsin]
- Modulation Effect (inhibit or enhance siRNA-mediated mRNA degradation) [1]: Inhibitor
- Effect ([2]; Table 2): Inhibitor
- Effect ([2]; as listed in Table 3): Inhibitor

Compound: CC(=O)N(O)CCCCCNC(=O)CCC(=O)N(O)CCCCCNC(=O)CCC(=O)N(O)CCCCCN [Deferoxamine Mesylate]
- EGFP, 293-EGFP cells With RNAi-E (EGFP, 293-EGFP cells; [3]): 194519648
- EGFP, 293-EGFP cells Drug alone (EGFP, 293-EGFP cells; 50 mM each drug): 194929488
- Clone#3, 293-EGFP-siGFP cells GFP signal intensity with Drug and RNAi-E [2, 3]: 12987131
- Clone#3, 293-EGFP-siGFP cells GFP signal intensity with Drug alone ([2]; 50 mM each drug): 15874023.8

Compound: Cc1cc(=O)c2c(O)c3c(cc2o1)OCC(C)CC3 (stereo not shown) [Dihydroptaeroxylin]
- Modulation Effect (inhibit or enhance siRNA-mediated mRNA degradation) [1]: Enhancer
- EGFP, 293-EGFP cells Control % (With RNAi-E) (EGFP, 293-EGFP cells; [4]): 95.4836%
- EGFP, 293-EGFP cells Control % (Drug alone) (EGFP, 293-EGFP cells; [5]): 105.776%
- EGFP, 293-EGFP cells With RNAi-E (EGFP, 293-EGFP cells; [3]): 194786588
- EGFP, 293-EGFP cells Drug alone (EGFP, 293-EGFP cells; 50 mM each drug): 215783848
- Clone#3, 293-EGFP-siGFP cells GFP signal intensity with Drug and RNAi-E [2, 3]: 17140237.8
- Clone#3, 293-EGFP-siGFP cells % GFP signal intensity with drug + RNAi-E/Control (no drug) [2, 4]: 59.4446%
- Clone#3, 293-EGFP-siGFP cells GFP signal intensity with Drug alone ([2]; 50 mM each drug): 26383349
- Clone#3 293-EGFP-siGFP cells % GFP signal intensity with drug alone/Control (no drug) [2, 5]: 91.5009%
- Effect ([2]; Table 2): Enhancer
- Effect ([2]; as listed in Table 3): Enhancer

Compound: O=C(O)CCC(=O)c1ccc(-c2ccccc2)cc1 [Fenbufen]
- Modulation Effect (inhibit or enhance siRNA-mediated mRNA degradation) [1]: Enhancer
- EGFP, 293-EGFP cells With RNAi-E (EGFP, 293-EGFP cells; [3]): 191729340
- EGFP, 293-EGFP cells Drug alone (EGFP, 293-EGFP cells; 50 mM each drug): 204633204
- Clone#3, 293-EGFP-siGFP cells GFP signal intensity with Drug and RNAi-E [2, 3]: 17801864.5
- Clone#3, 293-EGFP-siGFP cells GFP signal intensity with Drug alone ([2]; 50 mM each drug): 26499027
- Effect ([2]; Table 2): Enhancer
- Effect ([2]; as listed in Table 3): Enhancer

Compound: CC(=O)O[C@H]1C[C@@]2(C)[C@@H](C[C@@H](O)[C@H]3[C@@]4(C)CC[C@@H](O)[C@@H](C)[C@@H]4CC[C@@]32C)/C1=C(\CCC=C(C)C)C(=O)O [Fusidic Acid]
- Modulation Effect (inhibit or enhance siRNA-mediated mRNA degradation) [1]: Enhancer
- EGFP, 293-EGFP cells With RNAi-E (EGFP, 293-EGFP cells; [3]): 192354884
- EGFP, 293-EGFP cells Drug alone (EGFP, 293-EGFP cells; 50 mM each drug): 229560272
- Clone#3, 293-EGFP-siGFP cells GFP signal intensity with Drug and RNAi-E [2, 3]: 18581363.5
- Clone#3, 293-EGFP-siGFP cells GFP signal intensity with Drug alone ([2]; 50 mM each drug): 27803206.5
- Effect ([2]; Table 2): Enhancer
- Effect ([2]; as listed in Table 3): Enhancer

Compound: O=C1CC[C@]23/C=C/C(=O)NCCCCNCCCNC(=O)/C=C/c4ccc(c2c4)O[C@@H]3C1 [Lunarine]
- Modulation Effect (inhibit or enhance siRNA-mediated mRNA degradation) [1]: Enhancer
- EGFP, 293-EGFP cells With RNAi-E (EGFP, 293-EGFP cells; [3]): 130354040
- EGFP, 293-EGFP cells Drug alone (EGFP, 293-EGFP cells; 50 mM each drug): 131010562
- Clone#3, 293-EGFP-siGFP cells GFP signal intensity with Drug and RNAi-E [2, 3]: 11171512
- Clone#3, 293-EGFP-siGFP cells GFP signal intensity with Drug alone ([2]; 50 mM each drug): 9353700
- Effect ([2]; Table 2): Enhancer
- Effect ([2]; as listed in Table 3): Enhancer

Compound: COc1cc2c(cc1OC)C(=O)OC2 [Metameconine]
- Modulation Effect (inhibit or enhance siRNA-mediated mRNA degradation) [1]: Inhibitor
- Effect ([2]; Table 2): Inhibitor
- Effect ([2]; as listed in Table 3): Inhibitor

Compound: O=C(NCCN(CCNC(=O)c1cc(S(=O)(=O)O)c2cccnc2c1O)CCNC(=O)c1cc(S(=O)(=O)O)c2cccnc2c1O)c1cc(S(=O)(=O)O)c2cccnc2c1O [OTX, O-trensox]
- anti-proliferative activity (tumor cell models): anti-proliferative activity

Compound: Cc1ncc(CO)c(C=NNC(=O)c2ccncc2)c1O [P1H, pyridoxal isonicotinoyl hydrazone]
- anti-proliferative activity (tumor cell models): anti-proliferative activity

Compound: Nc1nc2[nH]cnc2c(=S)[nH]1 [Thioguanine]
- Modulation Effect (inhibit or enhance siRNA-mediated mRNA degradation) [1]: Enhancer
- EGFP, 293-EGFP cells With RNAi-E (EGFP, 293-EGFP cells; [3]): 193528220
- EGFP, 293-EGFP cells Drug alone (EGFP, 293-EGFP cells; 50 mM each drug): 181033260
- Clone#3, 293-EGFP-siGFP cells GFP signal intensity with Drug and RNAi-E [2, 3]: 9228044.75
- Clone#3, 293-EGFP-siGFP cells GFP signal intensity with Drug alone ([2]; 50 mM each drug): 11903224.8
- Effect ([2]; Table 2): Enhancer
- Effect ([2]; as listed in Table 3): Enhancer

Compound: NC(=S)NN=Cc1ncccc1N [Triapine, 3-aminopyridine-2-carboxaldehyde thiosemicarbazone]
- activity against tumor cell models (tumor cell models): has activity against a variety of tumor cell models
- anti-proliferative activity (tumor cell models): anti-proliferative activity

Compound: Cc1ccc(/C(=C\CN2CCCC2)c2ccccn2)cc1 [Triprolidine Hydrochloride]
- EGFP, 293-EGFP cells With RNAi-E (EGFP, 293-EGFP cells; [3]): 202110668
- EGFP, 293-EGFP cells Drug alone (EGFP, 293-EGFP cells; 50 mM each drug): 202102776
- Clone#3, 293-EGFP-siGFP cells GFP signal intensity with Drug and RNAi-E [2, 3]: 19639902.5
- Clone#3, 293-EGFP-siGFP cells GFP signal intensity with Drug alone ([2]; 50 mM each drug): 26791778.5

Compound: CC(=O)N(O)CCCCCNC(=O)CCC(=O)N(O)CCCCCNC(=O)CCC(=O)N(O)CCCCCN [desferrioxamine]
- anti-proliferative activity (tumor cell models): anti-proliferative activity
- sensitivity of aggressive tumors to Fe chelation therapy (tumor cell models; neuroblastoma (NB) and leukemia, in vitro, in vivo and clinical trials): sensitive

Compound: COc1cc(C(=O)NCc2ccc(OCCN(C)C)cc2)cc(OC)c1OC [trimethobenzamide]
- siRNA-mediated mRNA degradation and gene knock-down ([1]; pilot screen of The Spectrum Collection, FIG. 3, FIG. 4): inhibit siRNA-mediated mRNA degradation and gene knock-down

Reference: patent US20120071539A1, “COMPOUNDS AND METHODS FOR MODULATING THE SILENCING OF A POLYNUCLEOTIDE OF INTEREST” (Emory University, priority 2006, published 2012)
